Measurements as given in ChEMBL document CHEMBL4665648, “Potent and selective inhibitors of receptor-interacting protein kinase 1 that lack an aromatic back pocket group” (Bioorg Med Chem Lett, 2019).
Converted amounts (≈) assume the structure as drawn.

Experiments:
[1] = target: Ribosomal protein S6 kinase beta-1 (Homo sapiens) (UniProt P23443); experiment: Inhibition of recombinant human GST-tagged p70S6K (1 to 421 residues) expressed in baculovirus expression system using Ser/Thr 07 as substrate at 10 uM incubated for 60 mins by Z'-Lyte assay relative to control
[2] = target: Non-receptor tyrosine-protein kinase TYK2 (Homo sapiens) (UniProt P29597); experiment: Inhibition of recombinant human N-terminal GST-tagged TYK2 (833 to 1187 residues) expressed in baculovirus expression system using Tyr 03 as substrate at 10 uM incubated for 60 mins by Z'-Lyte assay relative to control
[3] = Kinetic solubility of compound at pH 7.4; type: physicochemical; conditions: buffer, read-out: Kinetic_solubility
[4] = target: Insulin receptor (Homo sapiens) (UniProt P06213); experiment: Inhibition of recombinant human GST-tagged InsR (1011 to 1382 residues) expressed in baculovirus expression system using Tyr 01 as substrate at 10 uM incubated for 60 mins by Z'-lyte assay relative to control
[5] = target: Serine/threonine-protein kinase PAK 6 (Homo sapiens) (UniProt Q9NQU5); experiment: Inhibition of recombinant human His-tagged full length PAK6 expressed in baculovirus expression system using Ser/Thr 20 as substrate at 10 uM incubated for 60 mins by Z'-lyte assay relative to control
[6] = target: Tyrosine-protein kinase receptor UFO (Homo sapiens) (UniProt P30530); experiment: Inhibition of recombinant human GST-tagged full length AXL expressed in insect expression system using Tyr 06 as substrate at 10 uM incubated for 60 mins by Z'-Lyte assay relative to control
[7] = target: ALK tyrosine kinase receptor (Homo sapiens) (UniProt Q9UM73); experiment: Inhibition of recombinant human GST-tagged […] (1058 to 1620 residues) expressed in baculovirus expression system using Tyr 01 as substrate at 10 uM incubated for 60 mins by Z'-Lyte assay relative to control
[8] = target: Leucine-rich repeat serine/threonine-protein kinase 2 (Homo sapiens) (UniProt Q5S007); experiment: Inhibition of recombinant human GST-tagged LRRK2 (970 to 2527 residues) expressed in baculovirus expression system using LRRKtide as substrate at 10 uM incubated for 60 mins by Adapta assay relative to control
[9] = target: Phosphorylase b kinase gamma catalytic chain, skeletal muscle/heart isoform (Homo sapiens) (UniProt Q16816); experiment: Inhibition of recombinant human GST-tagged full length PHKG1 expressed in baculovirus expression system using Ser/Thr 07 as substrate at 10 uM incubated for 60 mins by Z'-lyte assay relative to control
[10] = target: Proto-oncogene tyrosine-protein kinase Src (Homo sapiens) (UniProt P12931); experiment: Inhibition of recombinant human C-terminal His-tagged full length SRC expressed in baculovirus expression system using Tyr 02 as substrate at 10 uM incubated for 60 mins by Z'-Lyte assay relative to control
[11] = target: BDNF/NT-3 growth factors receptor (Homo sapiens) (UniProt Q16620); experiment: Inhibition of recombinant human His-tagged TRKB (526 to 838 residues) expressed in baculovirus expression system using Tyr 01 as substrate at 10 uM incubated for 60 mins by Z'-Lyte assay relative to control
[12] = target: Serine/threonine-protein kinase 16 (Homo sapiens) (UniProt O75716); experiment: Inhibition of tracer 236 binding to recombinant human His-tagged full length STK16 expressed in baculovirus expression system at 10 uM incubated for 60 mins by Lanthascreen assay relative to control

Sequence of Tyrosine-protein kinase receptor UFO (Homo sapiens) (P30530 whole entry, the tested form may be a part): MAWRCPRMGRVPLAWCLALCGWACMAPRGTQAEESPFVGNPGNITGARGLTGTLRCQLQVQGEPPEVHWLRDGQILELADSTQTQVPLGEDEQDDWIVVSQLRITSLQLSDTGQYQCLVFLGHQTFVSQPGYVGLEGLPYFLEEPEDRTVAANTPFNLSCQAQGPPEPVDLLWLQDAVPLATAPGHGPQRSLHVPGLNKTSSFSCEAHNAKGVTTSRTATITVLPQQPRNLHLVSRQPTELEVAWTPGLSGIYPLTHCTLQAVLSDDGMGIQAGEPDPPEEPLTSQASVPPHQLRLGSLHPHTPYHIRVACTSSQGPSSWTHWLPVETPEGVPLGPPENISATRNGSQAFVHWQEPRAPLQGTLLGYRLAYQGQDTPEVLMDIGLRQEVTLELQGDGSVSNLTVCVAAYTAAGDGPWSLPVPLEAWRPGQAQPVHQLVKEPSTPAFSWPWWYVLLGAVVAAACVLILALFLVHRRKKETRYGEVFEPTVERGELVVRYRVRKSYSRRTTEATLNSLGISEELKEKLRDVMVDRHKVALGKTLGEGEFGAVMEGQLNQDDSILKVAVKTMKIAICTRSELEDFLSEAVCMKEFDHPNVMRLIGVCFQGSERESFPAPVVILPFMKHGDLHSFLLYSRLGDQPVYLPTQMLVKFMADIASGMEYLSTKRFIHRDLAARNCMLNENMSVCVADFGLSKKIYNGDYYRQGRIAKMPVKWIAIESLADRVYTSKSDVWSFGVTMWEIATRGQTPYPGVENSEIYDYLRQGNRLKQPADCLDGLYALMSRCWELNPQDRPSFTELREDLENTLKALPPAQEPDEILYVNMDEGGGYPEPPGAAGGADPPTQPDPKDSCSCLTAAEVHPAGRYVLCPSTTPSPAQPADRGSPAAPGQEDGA
Sequence of Serine/threonine-protein kinase PAK 6 (Homo sapiens) (Q9NQU5 whole entry, looked up): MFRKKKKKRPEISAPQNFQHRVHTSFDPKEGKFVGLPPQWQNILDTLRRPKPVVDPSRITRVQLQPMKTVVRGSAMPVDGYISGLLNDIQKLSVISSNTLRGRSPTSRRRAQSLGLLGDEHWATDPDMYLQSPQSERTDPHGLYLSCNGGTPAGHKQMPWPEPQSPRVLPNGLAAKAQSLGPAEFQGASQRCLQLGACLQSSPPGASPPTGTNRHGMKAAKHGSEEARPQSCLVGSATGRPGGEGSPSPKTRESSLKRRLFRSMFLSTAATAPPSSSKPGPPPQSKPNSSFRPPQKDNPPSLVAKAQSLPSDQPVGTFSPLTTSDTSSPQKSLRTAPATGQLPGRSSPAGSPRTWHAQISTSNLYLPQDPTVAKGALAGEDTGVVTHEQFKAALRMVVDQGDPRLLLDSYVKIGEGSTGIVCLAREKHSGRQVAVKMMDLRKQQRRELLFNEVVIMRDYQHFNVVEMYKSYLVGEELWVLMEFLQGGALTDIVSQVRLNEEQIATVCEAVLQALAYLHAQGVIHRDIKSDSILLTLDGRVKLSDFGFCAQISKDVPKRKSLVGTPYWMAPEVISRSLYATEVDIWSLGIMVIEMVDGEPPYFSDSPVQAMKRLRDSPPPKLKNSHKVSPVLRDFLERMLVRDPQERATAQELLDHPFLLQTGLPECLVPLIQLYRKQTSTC
Sequence of Leucine-rich repeat serine/threonine-protein kinase 2 (Homo sapiens) (Q5S007 whole entry, the tested form may be a part, canonical isoform): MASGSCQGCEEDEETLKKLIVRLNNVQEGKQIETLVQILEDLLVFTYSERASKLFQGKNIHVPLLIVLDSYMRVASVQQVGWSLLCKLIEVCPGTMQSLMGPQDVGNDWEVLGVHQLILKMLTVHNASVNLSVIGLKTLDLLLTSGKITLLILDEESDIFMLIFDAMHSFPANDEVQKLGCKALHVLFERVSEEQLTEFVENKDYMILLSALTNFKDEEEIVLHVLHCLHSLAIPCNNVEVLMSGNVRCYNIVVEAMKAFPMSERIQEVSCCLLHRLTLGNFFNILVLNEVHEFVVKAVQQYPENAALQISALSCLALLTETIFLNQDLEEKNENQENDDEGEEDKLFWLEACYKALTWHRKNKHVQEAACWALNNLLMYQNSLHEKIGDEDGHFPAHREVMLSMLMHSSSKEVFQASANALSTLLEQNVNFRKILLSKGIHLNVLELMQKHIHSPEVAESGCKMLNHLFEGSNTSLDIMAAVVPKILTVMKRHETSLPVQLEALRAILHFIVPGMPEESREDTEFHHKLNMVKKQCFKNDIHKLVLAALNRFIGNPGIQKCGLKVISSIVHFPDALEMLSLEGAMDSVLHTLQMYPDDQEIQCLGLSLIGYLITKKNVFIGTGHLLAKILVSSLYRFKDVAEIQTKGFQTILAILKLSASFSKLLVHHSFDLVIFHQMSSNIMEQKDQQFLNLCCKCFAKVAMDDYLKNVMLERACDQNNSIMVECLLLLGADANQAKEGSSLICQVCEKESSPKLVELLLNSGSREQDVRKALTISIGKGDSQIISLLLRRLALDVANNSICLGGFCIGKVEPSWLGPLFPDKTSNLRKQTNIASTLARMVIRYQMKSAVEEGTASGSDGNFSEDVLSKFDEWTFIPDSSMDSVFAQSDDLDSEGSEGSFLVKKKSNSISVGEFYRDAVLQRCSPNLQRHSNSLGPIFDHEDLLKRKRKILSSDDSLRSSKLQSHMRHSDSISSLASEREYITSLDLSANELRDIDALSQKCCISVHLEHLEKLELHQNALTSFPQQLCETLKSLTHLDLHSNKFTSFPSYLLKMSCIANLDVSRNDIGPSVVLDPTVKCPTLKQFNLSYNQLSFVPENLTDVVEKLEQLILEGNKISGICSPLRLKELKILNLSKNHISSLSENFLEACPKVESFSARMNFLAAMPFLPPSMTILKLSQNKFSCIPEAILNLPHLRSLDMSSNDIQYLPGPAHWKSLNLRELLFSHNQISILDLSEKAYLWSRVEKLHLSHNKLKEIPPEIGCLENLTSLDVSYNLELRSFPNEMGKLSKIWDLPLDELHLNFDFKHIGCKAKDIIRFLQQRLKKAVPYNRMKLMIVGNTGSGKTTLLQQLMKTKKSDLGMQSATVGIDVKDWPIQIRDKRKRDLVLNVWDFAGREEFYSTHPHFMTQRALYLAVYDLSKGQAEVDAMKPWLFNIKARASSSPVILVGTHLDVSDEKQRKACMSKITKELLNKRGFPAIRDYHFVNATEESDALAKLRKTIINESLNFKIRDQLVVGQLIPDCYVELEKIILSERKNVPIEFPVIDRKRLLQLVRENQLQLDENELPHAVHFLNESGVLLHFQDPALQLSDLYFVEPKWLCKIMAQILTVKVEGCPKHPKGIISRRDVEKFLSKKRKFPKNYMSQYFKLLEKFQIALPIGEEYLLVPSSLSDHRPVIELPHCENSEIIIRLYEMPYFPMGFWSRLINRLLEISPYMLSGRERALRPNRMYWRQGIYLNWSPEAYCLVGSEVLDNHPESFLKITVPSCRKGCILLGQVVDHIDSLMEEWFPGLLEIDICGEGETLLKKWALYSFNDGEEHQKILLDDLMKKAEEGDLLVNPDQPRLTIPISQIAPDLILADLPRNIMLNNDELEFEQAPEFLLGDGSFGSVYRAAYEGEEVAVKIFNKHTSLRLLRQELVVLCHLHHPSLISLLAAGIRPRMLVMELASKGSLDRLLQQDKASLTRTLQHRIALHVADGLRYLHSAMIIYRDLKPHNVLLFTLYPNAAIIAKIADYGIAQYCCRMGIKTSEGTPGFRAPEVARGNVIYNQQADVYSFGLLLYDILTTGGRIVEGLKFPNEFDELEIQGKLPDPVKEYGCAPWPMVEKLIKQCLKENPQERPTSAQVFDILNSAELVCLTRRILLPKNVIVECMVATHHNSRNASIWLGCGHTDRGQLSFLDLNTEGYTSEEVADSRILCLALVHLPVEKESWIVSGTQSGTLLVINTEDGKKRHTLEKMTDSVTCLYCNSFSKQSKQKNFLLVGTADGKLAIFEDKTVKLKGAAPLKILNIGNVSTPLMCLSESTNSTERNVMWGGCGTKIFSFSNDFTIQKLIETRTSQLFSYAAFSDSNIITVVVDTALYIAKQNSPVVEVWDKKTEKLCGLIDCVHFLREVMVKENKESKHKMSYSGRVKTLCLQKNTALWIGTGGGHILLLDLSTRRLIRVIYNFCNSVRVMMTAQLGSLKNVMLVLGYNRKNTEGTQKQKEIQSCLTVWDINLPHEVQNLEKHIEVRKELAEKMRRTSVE
Sequence of Ribosomal protein S6 kinase beta-1 (Homo sapiens) (P23443 whole entry, looked up, the tested form may be a part): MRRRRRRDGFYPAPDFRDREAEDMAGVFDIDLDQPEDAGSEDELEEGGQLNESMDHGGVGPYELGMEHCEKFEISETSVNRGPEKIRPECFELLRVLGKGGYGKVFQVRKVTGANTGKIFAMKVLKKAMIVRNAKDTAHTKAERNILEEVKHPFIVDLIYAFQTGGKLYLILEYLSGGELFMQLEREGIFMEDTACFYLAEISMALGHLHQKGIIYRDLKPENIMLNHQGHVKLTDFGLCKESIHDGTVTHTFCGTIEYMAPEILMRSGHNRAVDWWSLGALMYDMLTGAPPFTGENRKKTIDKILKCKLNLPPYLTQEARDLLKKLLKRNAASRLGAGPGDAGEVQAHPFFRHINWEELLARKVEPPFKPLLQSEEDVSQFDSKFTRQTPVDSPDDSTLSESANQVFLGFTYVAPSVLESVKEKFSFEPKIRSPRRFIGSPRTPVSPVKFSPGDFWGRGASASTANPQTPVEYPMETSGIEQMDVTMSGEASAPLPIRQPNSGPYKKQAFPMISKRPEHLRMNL
Sequence of Phosphorylase b kinase gamma catalytic chain, skeletal muscle/heart isoform (Homo sapiens) (Q16816 whole entry, looked up, canonical isoform): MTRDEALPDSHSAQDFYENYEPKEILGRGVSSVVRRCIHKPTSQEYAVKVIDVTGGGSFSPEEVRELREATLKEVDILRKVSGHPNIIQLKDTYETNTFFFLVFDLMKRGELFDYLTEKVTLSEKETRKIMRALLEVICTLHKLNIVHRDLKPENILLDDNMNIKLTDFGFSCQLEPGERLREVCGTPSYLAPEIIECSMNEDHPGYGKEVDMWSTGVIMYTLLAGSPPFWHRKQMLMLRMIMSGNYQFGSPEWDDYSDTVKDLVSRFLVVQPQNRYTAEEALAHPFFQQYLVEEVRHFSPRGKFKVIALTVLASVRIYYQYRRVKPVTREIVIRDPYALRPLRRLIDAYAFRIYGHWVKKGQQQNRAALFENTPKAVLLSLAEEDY

Question: Which inhibition [1] does the source give for `CN1C(=O)[C@@H](NC(=O)c2n[nH]c3ncc(C(F)(F)C(F)(F)F)cc23)COc2ccccc21` here?
Answer: 6.5%

Question: What about the inhibition [2] of the same compound?
Answer: 5.5%

Question: And the solubility kinetic [3]?
Answer: 17 µM (≈ 7.74 µg/mL)

Question: And the inhibition [4]?
Answer: 6%

Question: And the inhibition [5]?
Answer: 7%

Question: And the inhibition [6]?
Answer: 6.5%

Question: And the inhibition [7]?
Answer: 3%

Question: What about the inhibition [8] of the same compound?
Answer: -0.5%

Question: And the inhibition [9]?
Answer: 9%

Question: What about the inhibition [10] of the same compound?
Answer: 2%

Question: What about the inhibition [11] of the same compound?
Answer: 0.5%

Question: What about the inhibition [12] of the same compound?
Answer: 3%
